Data on 31 compounds can be found in patent publication US7803822B2, “Triazole derivative and use thereof” (Takeda Pharmaceutical Company Limited, priority 2005, dated 2010).

Broadly, the IC50 is the concentration needed to halve the response being measured.

Each structure is given as a SMILES string.

This test concerns the target T1, human PAR-1 (Homo sapiens, UniProt P25116).
T1 construct: expressed in transfected cells; host or cells: CHO-K1 (transformant flag/trn/CHO-K1)
T1 sequence (P25116 22-425): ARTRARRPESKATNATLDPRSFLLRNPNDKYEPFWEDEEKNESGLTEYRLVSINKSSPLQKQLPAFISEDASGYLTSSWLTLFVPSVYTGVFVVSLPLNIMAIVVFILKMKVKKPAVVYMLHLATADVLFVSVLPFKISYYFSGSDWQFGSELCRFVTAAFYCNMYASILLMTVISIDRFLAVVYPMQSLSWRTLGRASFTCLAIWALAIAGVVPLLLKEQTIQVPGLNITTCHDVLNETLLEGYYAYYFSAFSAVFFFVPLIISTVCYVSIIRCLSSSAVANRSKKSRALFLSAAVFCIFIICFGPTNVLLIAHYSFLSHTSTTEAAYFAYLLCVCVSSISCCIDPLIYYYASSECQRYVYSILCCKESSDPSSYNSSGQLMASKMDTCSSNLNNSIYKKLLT
Nature of the test: Evaluation of PAR-1 antagonistic action by intracellular calcium concentration variation assay (FLIPR). Format: cell-based. As to conditions: human PAR-1-expressing CHO cells, agonist peptide SFLLRN-NH2 final concentration 0.3 nM, Fluo-3AM. Here is the method: Evaluation of PAR-1 Antagonistic Action of Compound by Intracellular Calcium Concentration Variation Assay
Human PAR-1-expressing cells was plated at 3×10^4 cells/well on a 96 well clear bottom plate (Corning 3904 type) and cultured for 16-24 hr. The medium was removed from the wells of the plate, measurement buffer (50 μL, 115 mM NaCl, 5.4 mM KCl, 1.8 mM CaCl2, 0.8 mM MgCl2, 13.8 mM D-glucose, 0.1% BSA, 20 mM HEPES, pH 7.4) containing 2.5 μg/mL of Fluo-3AM (manufactured by Dojindo Laboratories), 0.08% Pluronic F-127 and 2.5 mM Probenecid was added to the cells and the mixture was reacted at 37° C. for 1 hr. The cells were washed twice with the measurement buffer. After addition of the measurement buffer (100 μL), a measurement buffer (50 μL) containing a test compound was added, and the mixture was stood still for 10 min. The plate was moved to a fluorometry image-plate reader (FLIPR-1, manufactured by Molecular Devices). […] The intracellular calcium concentration was measured by FLIPR.
In general terms: A change in cytosolic calcium serves as a functional read-out for many receptors and channels.

Consider `CCCc1c(C(=O)NC2CC2)nnn1-c1ccc(NC(=O)C(C)C)cc1` [Example 3, N-cyclopropyl-1-[4-(isobutyrylamino)phenyl]-5-propyl-1H-1,2,3-triazole-4-carboxamide], for which the half-inhibitory concentration (IC50) is 520 nM. With `CCCc1c(C(=O)NC2CC2)nnn1-c1ccc(NC(=O)C2CC2)cc1` [Example 4, N-cyclopropyl-1-{4-[(cyclopropylcarbonyl)amino]phenyl}-5-propyl-1H-1,2,3-triazole-4-carboxamide] the figure was 550 nM. With `CCCc1c(C(=O)NC2CC2)nnn1-c1ccc(NC(=O)C(F)(F)F)cc1` [Example 16, N-cyclopropyl-5-propyl-1-{4-[(trifluoroacetyl)amino]phenyl}-1H-1,2,3-triazole-4-carboxamide] the figure was 250 nM; with `CCCc1c(C(=O)NC2CC2)nnn1-c1ccc(NC(=O)COC)cc1` [Example 19, N-cyclopropyl-1-{4-[(methoxyacetyl)amino]phenyl}-5-propyl-1H-1,2,3-triazole-4-carboxamide], 750 nM; with `CCCc1c(C(=O)NC2CC2)nnn1-c1ccc(NC(=O)CC(F)(F)F)cc1` [Example 25, N-cyclopropyl-5-propyl-1-{4-[(3,3,3-trifluoropropanoyl)amino]phenyl}-1H-1,2,3-triazole-4-carboxamide], 94 nM.

Turning to `CCCc1c(C(=O)NC2CC2)nnn1-c1ccc(NC(=O)NCC)cc1` [Example 27, N-cyclopropyl-1-(4-{[(ethylamino)carbonyl]amino}phenyl)-5-propyl-1H-1,2,3-triazole-4-carboxamide], the IC50 came to 370 nM. With `CCCc1c(C(=O)NC2CC2)nnn1-c1ccc(NC(=O)NC)cc1` [Example 31, N-cyclopropyl-1-(4-{[(methylamino)carbonyl]amino}phenyl)-5-propyl-1H-1,2,3-triazole-4-carboxamide], the IC50 came to 3700 nM. With `C=CCCc1c(C(=O)NC2CC2)nnn1-c1ccc(NC(=O)NCC)cc1` [Example 41, 5-(3-buten-1-yl)-N-cyclopropyl-1-(4-{[(ethylamino)carbonyl]amino}phenyl)-1H-1,2,3-triazole-4-carboxamide], the half-inhibitory concentration (IC50) was found to be 630 nM.

As to `CCCc1c(C(=O)NC2CC2)nnn1-c1ccc(C(=O)NCC)cc1` [Example 43, N-cyclopropyl-1-{4-[(ethylamino)carbonyl]phenyl}-5-propyl-1H-1,2,3-triazole-4-carboxamide], the IC50 came out at 1500 nM. As for `CCCc1c(C(=O)NC2CC2)nnn1-c1ccc(C(=O)NCC(F)(F)F)cc1` [Example 46, N-cyclopropyl-5-propyl-1-(4-{[(2,2,2-trifluoroethyl)amino]carbonyl}phenyl)-1H-1,2,3-triazole-4-carboxamide], the IC50 was determined as 950 nM. The result for `CCCc1c(C(=O)NC2CC2)nnn1-c1ccc(C(=O)NC(C)C)cc1` [Example 49, N-cyclopropyl-1-{4-[(isopropylamino)carbonyl]phenyl}-5-propyl-1H-1,2,3-triazole-4-carboxamide] reads 3500 nM; that for `CCCc1c(C(=O)NC2CC2)nnn1-c1ccc(C(=O)NCC(C)C)cc1` [Example 52, N-cyclopropyl-1-{4-[(isobutylamino)carbonyl]phenyl}-5-propyl-1H-1,2,3-triazole-4-carboxamide], 1400 nM.

For the compound `CCCc1c(C(=O)NC2CC2)nnn1-c1ccc(C(=O)NC2CC2)cc1` [Example 53, N-cyclopropyl-1-{4-[(cyclopropylamino)carbonyl]phenyl}-5-propyl-1H-1,2,3-triazole-4-carboxamide], the IC50 turned out to be 3400 nM. As for `CCCc1c(C(=O)NC2CC2)nnn1-c1ccc(C(=O)NC2CCCC2)cc1` [Example 54, 1-{4-[(cyclopentylamino)carbonyl]phenyl}-N-cyclopropyl-5-propyl-1H-1,2,3-triazole-4-carboxamide], the half-maximal inhibitory concentration (IC50) was 1600 nM. On to `CCCNC(=O)c1ccc(-n2nnc(C(=O)NC3CC3)c2CCC)cc1` [Example 55, N-cyclopropyl-5-propyl-1-{4-[(propylamino)carbonyl]phenyl}-1H-1,2,3-triazole-4-carboxamide], for which the IC50 came to 3600 nM.

With `CCCc1c(C(=O)NC2CC2)nnn1-c1ccc(C(=O)NCC)cc1Cl` [Example 72, 1-{2-chloro-4-[(ethylamino)carbonyl]phenyl}-N-cyclopropyl-5-propyl-1H-1,2,3-triazole-4-carboxamide], the IC50 came to 3400 nM. For `CCCc1c(C(=O)NCC2CCCO2)nnn1-c1ccc(C(=O)NCC)cc1` (stereo not shown) [Example 82, 1-{4-[(ethylamino)carbonyl]phenyl}-5-propyl-N-(tetrahydrofuran-2-ylmethyl)-1H-1,2,3-triazole-4-carboxamide], the IC50 turned out to be 1900 nM. In the case of `CCCc1c(C(=O)NCc2cnc(C)cn2)nnn1-c1ccc(C(=O)NCC)cc1` [Example 83, 1-{4-[(ethylamino)carbonyl]phenyl}-N-[(5-methylpyrazin-2-yl)methyl]-5-propyl-1H-1,2,3-triazole-4-carboxamide], the IC50 was 3600 nM.

In the case of `CCCc1c(C(=O)NCc2ccccn2)nnn1-c1ccc(C(=O)NCC)cc1` [Example 84, 1-{4-[(ethylamino)carbonyl]phenyl}-5-propyl-N-(pyridin-2-ylmethyl)-1H-1,2,3-triazole-4-carboxamide], the IC50 turned out to be 1300 nM.

For `CCCc1c(C(=O)N2CCc3c([nH]c4ccccc34)C2)nnn1-c1ccc(C(=O)NCC)cc1` [Example 85, N-ethyl-4-[5-propyl-4-(1,3,4,9-tetrahydro-2H-β-carbolin-2-ylcarbonyl)-1H-1,2,3-triazol-1-yl]benzamide], the 50% inhibitory concentration (IC50) came out at 1900 nM. On to `CCCc1c(C(=O)NCc2ccc3c(c2)OCO3)nnn1-c1ccc(C(=O)NCC)cc1` [Example 86, N-(1,3-benzodioxol-5-ylmethyl)-1-{4-[(ethylamino)carbonyl]phenyl}-5-propyl-1H-1,2,3-triazole-4-carboxamide], for which the half-inhibitory concentration (IC50) is 620 nM. With `CCCc1c(C(=O)NCCc2c[nH]c3ccc(OC)cc23)nnn1-c1ccc(C(=O)NCC)cc1` [Example 87, 1-{4-[(ethylamino)carbonyl]phenyl}-N-[2-(5-methoxy-1H-indol-3-yl)ethyl]-5-propyl-1H-1,2,3-triazole-4-carboxamide] the figure was 280 nM. Consider `CCCc1c(C(=O)NCc2cccc(F)c2)nnn1-c1ccc(C(=O)NCC)cc1` [Example 88, 1-{4-[(ethylamino)carbonyl]phenyl}-N-(3-fluorobenzyl)-5-propyl-1H-1,2,3-triazole-4-carboxamide], for which the half-inhibitory concentration (IC50) was 720 nM. The result for `CCCc1c(C(=O)NC2CCCc3ccccc32)nnn1-c1ccc(C(=O)NCC)cc1` (stereo not shown) [Example 89, 1-{4-[(ethylamino)carbonyl]phenyl}-5-propyl-N-(1,2,3,4-tetrahydronaphthalen-1-yl)-1H-1,2,3-triazole-4-carboxamide] reads 670 nM; that for `CCCCc1c(C(=O)NC2CC2)nnn1-c1ccc(C(=O)NCC)cc1` [Example 90, 5-butyl-N-cyclopropyl-1-{4-[(ethylamino)carbonyl]phenyl}-1H-1,2,3-triazole-4-carboxamide], 2400 nM. With `CCNC(=O)c1ccc(-n2nnc(C(=O)NC3CC3)c2CCCOCc2ccccc2)cc1` [Example 91, 5-[3-(benzyloxy)propyl]-N-cyclopropyl-1-{4-[(ethylamino)carbonyl]phenyl}-1H-1,2,3-triazole-4-carboxamide], the half-inhibitory concentration (IC50) is 2200 nM. As for `CCNC(=O)c1ccc(-n2nnc(C(=O)NC3CC3)c2CC(C)C)cc1` [Example 93, N-cyclopropyl-1-{4-[(ethylamino)carbonyl]phenyl}-5-isobutyl-1H-1,2,3-triazole-4-carboxamide], the 50% inhibitory concentration (IC50) stood at 1200 nM. With `CCNC(=O)c1ccc(-n2nnc(C(=O)NC3CC3)c2COCc2ccccc2)cc1` [Example 94, 5-[(benzyloxy)methyl]-N-cyclopropyl-1-{4-[(ethylamino)carbonyl]phenyl}-1H-1,2,3-triazole-4-carboxamide], the IC50 was found to be 1700 nM. With `CCNC(=O)c1ccc(-n2nnc(C(=O)NC3CC3)c2CC2CC2)cc1` [Example 96, N-cyclopropyl-5-(cyclopropylmethyl)-1-{4-[(ethylamino)carbonyl]phenyl}-1H-1,2,3-triazole-4-carboxamide] the figure was 1200 nM; with `CCNC(=O)c1ccc(-n2nnc(C(=O)NC3CC3)c2CCC(C)C)cc1` [Example 97, N-cyclopropyl-1-{4-[(ethylamino)carbonyl]phenyl}-5-(3-methylbutyl)-1H-1,2,3-triazole-4-carboxamide], 1600 nM; with `CCNC(=O)c1ccc(-n2nnc(C(=O)NC3CC3)c2CCc2ccccc2)cc1` [Example 98, N-cyclopropyl-1-{4-[(ethylamino)carbonyl]phenyl}-5-(2-phenylethyl)-1H-1,2,3-triazole-4-carboxamide], 500 nM.
